Reference: US9937121B2, “Hydrophilic external gel formulation capable of enhancing skin permeability of tacrolimus” (CHUNG-ANG UNIVERSITY INDUSTRY-ACADEMIC COOPERATION …, priority 2014, dated 2018)

Legend:
[1] = poorly soluble in water and highly permeable; cited from earlier work
[2] = Solubility of tacrolimus in Transcutol P; format: physicochemical; settings: room temperature
Text: Since tacrolimus is lipid-soluble and a formulation for delivering a drug is in a hydrophilic gel form, a solubilizer that can dissolve tacrolimus and then disperse tacrolimus well was needed. Also, in order to enhance the skin permeability of tacrolimus, Transcutol P was selected as a substance which can act as an enhancer for skin permeability. […] Carbopol 934P used as a polymeric base absorbs and attracts water well, has an ability to form a film, and thus is widely used as a moisturizer. Carnosine, which is a biocomponent present in human muscle and brain tissue, is known as a substance having excellent antioxidant activity, and appropriately adjusts the pH of a formulation for external application when applied to skin.

## C=CC[C@@H]1/C=C(\C)C[C@H](C)C[C@H](OC)[C@H]2O[C@@](O)(C(=O)C(=O)N3CCCC[C@H]3C(=O)O[C@H](/C(C)=C/[C@@H]3CC[C@@H](O)[C@H](OC)C3)[C@H](C)[C@@H](O)CC1=O)[C@H](C)C[C@@H]2OC [tacrolimus, Tacrolimus]
[1]
  BCS class: class II
[2]
  solubility of tacrolimus in Transcutol P: 240 mg/g
